From the NIST ThermoML archive (doi:10.1021/je100801s)

Tests used:
[1] = Molar enthalpy of transition or fusion; details: Crystal; DSC
[2] = for Normal melting temperature: DTA

NC(=O)c1cccc(F)c1 [3-fluorobenzamide]
Details	Molar enthalpy of transition or fusion [kcal/mol]
[1]	5.14

[2]
Details	vapor or sublimation pressure [kPa]
323.1 K, Crystal, Calculated from knudsen effusion weight loss	9e-05
325.17 K, Crystal, Calculated from knudsen effusion weight loss	0.000114
327.18 K, Crystal, Calculated from knudsen effusion weight loss	0.000143
329.08 K, Crystal, Calculated from knudsen effusion weight loss	0.000183
331.13 K, Crystal, Calculated from knudsen effusion weight loss	0.000229
333.18 K, Crystal, Calculated from knudsen effusion weight loss	0.000286
336.83 K, Crystal, Closed cell (Static) method	0.00046
337.28 K, Crystal, Calculated from knudsen effusion weight loss	0.000461
339.17 K, Crystal, Calculated from knudsen effusion weight loss	0.000559
339.76 K, Crystal, Closed cell (Static) method	0.00063
341.08 K, Crystal, Calculated from knudsen effusion weight loss	0.000688
342.87 K, Crystal, Closed cell (Static) method	0.00089
343.13 K, Crystal, Calculated from knudsen effusion weight loss	0.000842
345.18 K, Crystal, Calculated from knudsen effusion weight loss	0.001032
345.87 K, Crystal, Closed cell (Static) method	0.0012
348.82 K, Crystal, Closed cell (Static) method	0.00166
351.66 K, Crystal, Closed cell (Static) method	0.00222
354.65 K, Crystal, Closed cell (Static) method	0.003
357.76 K, Crystal, Closed cell (Static) method	0.00407
360.59 K, Crystal, Closed cell (Static) method	0.00535
363.62 K, Crystal, Closed cell (Static) method	0.0071
366.55 K, Crystal, Closed cell (Static) method	0.00941
372.5 K, Crystal, Closed cell (Static) method	0.01592
375.47 K, Crystal, Closed cell (Static) method	0.02067
378.58 K, Crystal, Closed cell (Static) method	0.02712
382.58 K, Liquid, Closed cell (Static) method	0.0587
384.49 K, Crystal, Closed cell (Static) method	0.04471
387.47 K, Crystal, Closed cell (Static) method	0.05659
387.53 K, Liquid, Closed cell (Static) method	0.07955
390.45 K, Crystal, Closed cell (Static) method	0.07258
392.49 K, Liquid, Closed cell (Static) method	0.108
396.38 K, Crystal, Closed cell (Static) method	0.1148
397.43 K, Liquid, Closed cell (Static) method	0.1444
402.37 K, Liquid, Closed cell (Static) method	0.1895
407.27 K, Liquid, Closed cell (Static) method	0.2514
412.23 K, Liquid, Closed cell (Static) method	0.3264
417.16 K, Liquid, Closed cell (Static) method	0.4262
422.04 K, Liquid, Closed cell (Static) method	0.5472
427.02 K, Liquid, Closed cell (Static) method	0.7039
432 K, Liquid, Closed cell (Static) method	0.9006

Details	Normal melting temperature [°C]
[2], Crystal	128.43

NC(=O)c1ccc(F)cc1 [4-fluorobenzamide]
Details	Molar enthalpy of transition or fusion [kcal/mol]
[1]	4.66

[2], Closed cell (Static) method
Details	vapor or sublimation pressure [kPa]
344.79 K, Crystal	0.0007
347.76 K, Crystal	0.00097
350.74 K, Crystal	0.0013
353.73 K, Crystal	0.00174
356.7 K, Crystal	0.00236
359.68 K, Crystal	0.00313
362.66 K, Crystal	0.0041
365.63 K, Crystal	0.00535
368.61 K, Crystal	0.00699
371.58 K, Crystal	0.009
374.54 K, Crystal	0.01167
377.53 K, Crystal	0.015
380.48 K, Crystal	0.01934
383.47 K, Crystal	0.02445
386.43 K, Crystal	0.03134
392.35 K, Crystal	0.04995
395.33 K, Crystal	0.06299
398.28 K, Crystal	0.07872
401.25 K, Crystal	0.09854
404.24 K, Crystal	0.1266
407.22 K, Crystal	0.1568
410.16 K, Crystal	0.1944
410.2 K, Liquid	0.2629
412.16 K, Liquid	0.2902
413.14 K, Crystal	0.2396
414.13 K, Liquid	0.3222
416.1 K, Crystal	0.2948
416.11 K, Liquid	0.3584
418.11 K, Liquid	0.3963
419.06 K, Crystal	0.3637
420.05 K, Liquid	0.4398
422.01 K, Crystal	0.4419
422.03 K, Liquid	0.4862
424.02 K, Liquid	0.5382
424.99 K, Crystal	0.538
426 K, Liquid	0.593
427.93 K, Liquid	0.6524
429.92 K, Liquid	0.719
431.89 K, Liquid	0.7879
433.87 K, Liquid	0.8708
435.84 K, Liquid	0.9508
437.82 K, Liquid	1.04

Details	Normal melting temperature [°C]
[2], Crystal	156.04

NC(=O)c1ccccc1F [o-fluorobenzamide]
Details	Molar enthalpy of transition or fusion [kcal/mol]
[1]	4.95

[2]
Details	vapor or sublimation pressure [kPa]
303.12 K, Crystal, Calculated from knudsen effusion weight loss	0.000102
305.21 K, Crystal, Calculated from knudsen effusion weight loss	0.00013
307.19 K, Crystal, Calculated from knudsen effusion weight loss	0.000166
309.12 K, Crystal, Calculated from knudsen effusion weight loss	0.000213
311.2 K, Crystal, Calculated from knudsen effusion weight loss	0.00027
313.29 K, Crystal, Calculated from knudsen effusion weight loss	0.000341
315.11 K, Crystal, Calculated from knudsen effusion weight loss	0.000429
317.2 K, Crystal, Calculated from knudsen effusion weight loss	0.00054
317.98 K, Crystal, Closed cell (Static) method	0.0006
319.18 K, Crystal, Calculated from knudsen effusion weight loss	0.000668
320.48 K, Crystal, Closed cell (Static) method	0.0008
321.11 K, Crystal, Calculated from knudsen effusion weight loss	0.000843
322.94 K, Crystal, Closed cell (Static) method	0.00105
323.18 K, Crystal, Calculated from knudsen effusion weight loss	0.001059
325.18 K, Crystal, Calculated from knudsen effusion weight loss	0.001295
325.41 K, Crystal, Closed cell (Static) method	0.00137
327.86 K, Crystal, Closed cell (Static) method	0.00175
330.38 K, Crystal, Closed cell (Static) method	0.00233
332.86 K, Crystal, Closed cell (Static) method	0.003
335.32 K, Crystal, Closed cell (Static) method	0.0038
337.75 K, Crystal, Closed cell (Static) method	0.00484
340.21 K, Crystal, Closed cell (Static) method	0.00617
342.7 K, Crystal, Closed cell (Static) method	0.00785
345.32 K, Crystal, Closed cell (Static) method	0.01002
350.2 K, Crystal, Closed cell (Static) method	0.01581
355.69 K, Crystal, Closed cell (Static) method	0.02544
357.75 K, Crystal, Closed cell (Static) method	0.03116
358.65 K, Liquid, Closed cell (Static) method	0.05979
360.13 K, Crystal, Closed cell (Static) method	0.03777
361.55 K, Liquid, Closed cell (Static) method	0.07225
362.71 K, Crystal, Closed cell (Static) method	0.04753
364.59 K, Liquid, Closed cell (Static) method	0.08814
365.1 K, Crystal, Closed cell (Static) method	0.05735
367.55 K, Liquid, Closed cell (Static) method	0.1048
370.04 K, Crystal, Closed cell (Static) method	0.08597
370.55 K, Liquid, Closed cell (Static) method	0.126
372.63 K, Crystal, Closed cell (Static) method	0.1058
375.47 K, Liquid, Closed cell (Static) method	0.1688
377.6 K, Crystal, Closed cell (Static) method	0.1572
380.43 K, Liquid, Closed cell (Static) method	0.225
385.38 K, Liquid, Closed cell (Static) method	0.2972
391.35 K, Liquid, Closed cell (Static) method	0.4081
394.82 K, Liquid, Closed cell (Static) method	0.4892
397.41 K, Liquid, Closed cell (Static) method	0.5572
399.81 K, Liquid, Closed cell (Static) method	0.6302
402.34 K, Liquid, Closed cell (Static) method	0.7124
404.79 K, Liquid, Closed cell (Static) method	0.8064
407.26 K, Liquid, Closed cell (Static) method	0.9115
409.66 K, Liquid, Closed cell (Static) method	1.024
412.16 K, Liquid, Closed cell (Static) method	1.147

Details	Normal melting temperature [°C]
[2], Crystal	115.34
